From PubChem BioAssay AID1259407 (Chemical Carcinogenesis Research Information System (CCRIS), 2018)
Calls of active or inactive are those of the source. No rule for the calls is given here.

System: CCRIS mutagenicity, Ames/micronucleus/aberration tests
Assay: CCRIS mutagenicity studies

Measured: mutagenic call

O=[N+]([O-])O
inactive: Test System: AMES SALMONELLA TYPHIMURIUM, Strain/Indicator: TA97, Metabolic Activation: NONE, Method: PREINCUBATION inactive; negative | Test System: AMES SALMONELLA TYPHIMURIUM, Strain/Indicator: TA97, Metabolic Activation: S-9, Method: PREINCUBATION inactive; negative | Test System: AMES SALMONELLA TYPHIMURIUM, Strain/Indicator: TA97A, Metabolic Activation: NONE, Method: PREINCUBATION inactive; negative | Test System: AMES SALMONELLA TYPHIMURIUM, Strain/Indicator: TA97A, Metabolic Activation: NONE, Method: STANDARD PLATE inactive; negative | Test System: AMES SALMONELLA TYPHIMURIUM, Strain/Indicator: TA97A, Metabolic Activation: RAT, LIVER, S-9, PHENOBARBITAL AND BETA-NAPHTHOFLAVONE, Method: PREINCUBATION inactive; negative | Test System: AMES SALMONELLA TYPHIMURIUM, Strain/Indicator: TA97A, Metabolic Activation: RAT, LIVER, S-9, PHENOBARBITAL AND BETA-NAPHTHOFLAVONE, Method: STANDARD PLATE inactive; negative | Test System: AMES SALMONELLA TYPHIMURIUM, Strain/Indicator: TA98, Metabolic Activation: NONE, Method: STANDARD PLATE inactive; negative | Test System: AMES SALMONELLA TYPHIMURIUM, Strain/Indicator: TA98, Metabolic Activation: RAT, LIVER, S-9, AROCLOR 1254, Method: STANDARD PLATE inactive; negative | Test System: AMES SALMONELLA TYPHIMURIUM, Strain/Indicator: TA98, Metabolic Activation: RAT, LIVER, S-9, PHENOBARBITAL AND BETA-NAPHTHOFLAVONE, Method: PREINCUBATION inactive; negative | Test System: AMES SALMONELLA TYPHIMURIUM, Strain/Indicator: TA98, Metabolic Activation: RAT, LIVER, S-9, PHENOBARBITAL AND BETA-NAPHTHOFLAVONE, Method: STANDARD PLATE inactive; negative | Test System: AMES SALMONELLA TYPHIMURIUM, Strain/Indicator: TA100, Metabolic Activation: NONE, Method: STANDARD PLATE inactive; negative | Test System: AMES SALMONELLA TYPHIMURIUM, Strain/Indicator: TA100, Metabolic Activation: RAT, LIVER, S-9, AROCLOR 1254, Method: STANDARD PLATE inactive; negative | Test System: AMES SALMONELLA TYPHIMURIUM, Strain/Indicator: TA100, Metabolic Activation: RAT, LIVER, S-9, PHENOBARBITAL AND BETA-NAPHTHOFLAVONE, Method: PREINCUBATION inactive; negative | Test System: AMES SALMONELLA TYPHIMURIUM, Strain/Indicator: TA100, Metabolic Activation: RAT, LIVER, S-9, PHENOBARBITAL AND BETA-NAPHTHOFLAVONE, Method: STANDARD PLATE inactive; negative | Test System: AMES SALMONELLA TYPHIMURIUM, Strain/Indicator: TA102, Metabolic Activation: NONE, Method: PREINCUBATION inactive; negative | Test System: AMES SALMONELLA TYPHIMURIUM, Strain/Indicator: TA102, Metabolic Activation: S-9, Method: PREINCUBATION inactive; negative | Test System: AMES SALMONELLA TYPHIMURIUM, Strain/Indicator: TA102C, Metabolic Activation: NONE, Method: PREINCUBATION inactive; negative | Test System: AMES SALMONELLA TYPHIMURIUM, Strain/Indicator: TA102C, Metabolic Activation: NONE, Method: STANDARD PLATE inactive; negative | Test System: AMES SALMONELLA TYPHIMURIUM, Strain/Indicator: TA102C, Metabolic Activation: RAT, LIVER, S-9, PHENOBARBITAL AND BETA-NAPHTHOFLAVONE, Method: PREINCUBATION inactive; negative | Test System: AMES SALMONELLA TYPHIMURIUM, Strain/Indicator: TA102C, Metabolic Activation: RAT, LIVER, S-9, PHENOBARBITAL AND BETA-NAPHTHOFLAVONE, Method: STANDARD PLATE inactive; negative | Test System: AMES SALMONELLA TYPHIMURIUM, Strain/Indicator: TA1535, Metabolic Activation: NONE, Method: PREINCUBATION inactive; negative | Test System: AMES SALMONELLA TYPHIMURIUM, Strain/Indicator: TA1535, Metabolic Activation: NONE, Method: STANDARD PLATE inactive; negative | Test System: AMES SALMONELLA TYPHIMURIUM, Strain/Indicator: TA1535, Metabolic Activation: RAT, LIVER, S-9, AROCLOR 1254, Method: STANDARD PLATE inactive; negative | Test System: AMES SALMONELLA TYPHIMURIUM, Strain/Indicator: TA1535, Metabolic Activation: RAT, LIVER, S-9, PHENOBARBITAL AND BETA-NAPHTHOFLAVONE, Method: PREINCUBATION inactive; negative | Test System: AMES SALMONELLA TYPHIMURIUM, Strain/Indicator: TA1535, Metabolic Activation: RAT, LIVER, S-9, PHENOBARBITAL AND BETA-NAPHTHOFLAVONE, Method: STANDARD PLATE inactive; negative | Test System: AMES SALMONELLA TYPHIMURIUM, Strain/Indicator: TA1537, Metabolic Activation: NONE, Method: PREINCUBATION inactive; negative | Test System: AMES SALMONELLA TYPHIMURIUM, Strain/Indicator: TA1537, Metabolic Activation: NONE, Method: STANDARD PLATE inactive; negative | Test System: AMES SALMONELLA TYPHIMURIUM, Strain/Indicator: TA1537, Metabolic Activation: RAT, LIVER, S-9, AROCLOR 1254, Method: STANDARD PLATE inactive; negative | Test System: AMES SALMONELLA TYPHIMURIUM, Strain/Indicator: TA1537, Metabolic Activation: RAT, LIVER, S-9, PHENOBARBITAL AND BETA-NAPHTHOFLAVONE, Method: PREINCUBATION inactive; negative | Test System: AMES SALMONELLA TYPHIMURIUM, Strain/Indicator: TA1537, Metabolic Activation: RAT, LIVER, S-9, PHENOBARBITAL AND BETA-NAPHTHOFLAVONE, Method: STANDARD PLATE inactive; negative | Test System: AMES SALMONELLA TYPHIMURIUM, Strain/Indicator: TA1538, Metabolic Activation: NONE, Method: PREINCUBATION inactive; negative | Test System: AMES SALMONELLA TYPHIMURIUM, Strain/Indicator: TA1538, Metabolic Activation: NONE, Method: STANDARD PLATE inactive; negative | Test System: AMES SALMONELLA TYPHIMURIUM, Strain/Indicator: TA1538, Metabolic Activation: RAT, LIVER, S-9, AROCLOR 1254, Method: STANDARD PLATE inactive; negative | Test System: AMES SALMONELLA TYPHIMURIUM, Strain/Indicator: TA1538, Metabolic Activation: RAT, LIVER, S-9, PHENOBARBITAL AND BETA-NAPHTHOFLAVONE, Method: PREINCUBATION inactive; negative | Test System: AMES SALMONELLA TYPHIMURIUM, Strain/Indicator: TA1538, Metabolic Activation: RAT, LIVER, S-9, PHENOBARBITAL AND BETA-NAPHTHOFLAVONE, Method: STANDARD PLATE inactive; negative | Test System: E. COLI, Strain/Indicator: WP2, Metabolic Activation: NONE, Method: STANDARD PLATE inactive; negative | Test System: E. COLI, Strain/Indicator: WP2, Metabolic Activation: RAT, LIVER, S-9, AROCLOR 1254, Method: STANDARD PLATE inactive; negative

CCOC(=O)Nc1cccc2c1CN(C)CC2c1ccc(Cl)cc1 (configuration not stated)
inactive: Test System: AMES SALMONELLA TYPHIMURIUM, Strain/Indicator: TA98, Metabolic Activation: NONE inactive; negative | Test System: AMES SALMONELLA TYPHIMURIUM, Strain/Indicator: TA98, Metabolic Activation: S-9 inactive; negative | Test System: AMES SALMONELLA TYPHIMURIUM, Strain/Indicator: TA100, Metabolic Activation: NONE inactive; negative | Test System: AMES SALMONELLA TYPHIMURIUM, Strain/Indicator: TA100, Metabolic Activation: S-9 inactive; negative | Test System: AMES SALMONELLA TYPHIMURIUM, Strain/Indicator: TA1535, Metabolic Activation: NONE inactive; negative | Test System: AMES SALMONELLA TYPHIMURIUM, Strain/Indicator: TA1535, Metabolic Activation: S-9 inactive; negative | Test System: AMES SALMONELLA TYPHIMURIUM, Strain/Indicator: TA1537, Metabolic Activation: NONE inactive; negative | Test System: AMES SALMONELLA TYPHIMURIUM, Strain/Indicator: TA1537, Metabolic Activation: S-9 inactive; negative | Test System: AMES SALMONELLA TYPHIMURIUM, Strain/Indicator: TA1538, Metabolic Activation: NONE inactive; negative | Test System: AMES SALMONELLA TYPHIMURIUM, Strain/Indicator: TA1538, Metabolic Activation: S-9 inactive; negative
